For data set [1], the system named is hepatic fibrosis and resolution in DDC-treated mice. Briefly: iCORE LC MS/MS analysis of urinary reporters after i.v. NW cocktail, DDC liver fibrosis model. In kind it is in vivo, FVB/NJ mice. The settings on record: for individual iCORE peak intensity (DDC over control) relative to pretreatment: DDC-treated mice, NWs administered at 0, 3, 7 and 11 weeks, urine, n=10. How it is done: (§1) Mice were intravenously infused with 200 μl of PBS containing equimolar NW cocktails (5 μM per peptide) with EDTA-free protease inhibitor tablets (Roche) to isolate MMP activity. Mice were placed over 96-well plates surrounded by cylindrical sleeves for urine collection. To prevent further reporter degradation, voided samples were spiked with EDTA+ complete protease inhibitors (Roche) immediately after collection. To quantify urinary fluorescence, 2 μL of each sample was incubated with magnetic beads (Dynal) coated with α-FITC antibodies (Genetex) in 50 μl binding buffer ([…], 0.01% CHAPS) for 1 hr at 37° C., washed twice with 100 mM NH4OAc, and eluted twice with 15 μl of 5% acetic acid. Samples were neutralized with 2 M Tris and quantified by microplate fluorimetry. For iCORE analysis, samples were irradiated with UV for 30 min. before TCA precipitation (20% final volume) to remove proteins. Soluble fractions were applied to C18 reverse phase columns (Nest Group) and eluted via step gradients of 20% ACN increments in 0.1% formic acid. 60% ACN fractions containing Glu-fib peptides were collected and dried by vacuum centrifuge.
Peptide samples were reconstituted in 5% ACN, 0.1% formic acid and analyzed at MIT or the Taplin MS facility (Harvard Medical School). At MIT, peptides were captured and eluted from a C18 nanoflow HPLC column (75 μm internal diameter Magic C18 AQ, Michrom BioResources, Inc.) at a flow rate of 300 nL/min using water-acetonitrile solvent system with 0.1% formic acid. ESI mass spectrometry was carried out on a QSTAR Elite QTOF mass spectrometer (AB Sciex). At Harvard, samples are reconstituted in 2.5% ACN, 0.1% formic acid. Samples are injected using a Famos autosampler (LC Packings) into an Agilent 1100 HPLC prior to mass analysis on a LTQ-Orbitrap (Thermo Electron). To account for discrepancies in urine volumes and concentration, peak intensities of individual reporters were scaled relative to its respective total iCORE ion current before normalization against control samples to account for technical and age-related variations.
Pearson's correlation coefficients between different protease profiles were calculated with MatLAB. ANOVA analyses were calculated with GraphPad 5.0 (Prism). For ROC analysis, risk score functions were first estimated by logistic regression on individual biomarkers followed by ROC curve analyses of single or biomarker combinations (SigmaPlot).
Thus, to monitor the transitions between fibrosing and resolving disease, NWs were administered at 0, 3, 7, and 11 weeks into DDC-treated and age-matched control animals followed by iCORE MS/MS analysis.
The diagnostic performance of these biomarkers was determined by performing receiver operating characteristic (ROC) analyses for individual as well as biomarker combinations. ROC curves characterize the sensitivity and specificity of a biomarker as a function of the discrimination threshold by returning the area under the curve (AUC) as a performance metric with a baseline AUC of 0.5 representing a random biomarker classifier (dashed line, FIG. 11g,h).

The subject of another data set is liver collagen. The following applies: mouse, in vivo.
The test system of data set [2] is LS174T xenograft tumors. Briefly: iCORE MS/MS analysis of urinary reporters after i.v. NW library, colorectal tumor xenograft model. In kind it is in vivo, athymic nude mice. The settings on record: LS 174T tumor vs control, day 10; n=16 (8 ctrl, 8 tumor). How it is done: as §1, with “60% ACN fractions containing Glu-fib peptides were collected and dried by vacuum centrifuge.” left out
Peptide samples were reconstituted in 5% ACN, 0.1% formic acid and analyzed at MIT or the Taplin MS facility (Harvard Medical School). […]
Pearson's correlation coefficients between different protease profiles were calculated with MatLAB. ANOVA analyses were calculated with GraphPad 5.0 (Prism). […]

On the set-up of data set [3]: species or system FVB/NJ mice. The following applies: mouse, in vivo, iv. An excerpt: Using this assay, increases in sample fluorescence were observed upon proteolytic cleavage of the tethered fluorescent peptides resulting from abrogation of homoquenching between adjacent fluorophores. Initial reaction velocities were extracted for each protease-substrate combination and compiled for comparative analysis (FIG. 10a,b). FIG. 10 illustrates selecting protease-sensitive substrates for NW-chaperoned urinary trafficking. Kinetics of peptide-NW cleavage monitored by fluorimetry are shown in (a). Specific protease-substrate combinations led to rapid activation. […] IVIS in vivo imaging of DDC treated and control animals following intravenous injection of VivoTag-680 labeled Glu-fib peptides, (d) peptide-free NWs, or (e) peptide-conjugated NWs.

Data set [4] deals with LS174T xenograft tumors. Briefly: Serum CEA by ELISA in tumor animals. In kind it is in vivo, athymic nude mice. How it is done:
To quantify hepatic collagen, tissue from the right and left lobes (250-300 mg) were hydrolyzed in 5 ml of 6 N HCl at 110° C. for 16 hours followed by hydroxyproline quantification as previously described.^43 To quantify CEA, blood was collected from tumor animals into Capiject microtubes (Terumo) to isolate serum before ELISA analysis (Calbiotech).
Here, it was investigated whether panels of synthetic urinary biomarkers could be readily adapted to allow earlier and more accurate detection of cancer compared with single clinical blood biomarkers, e.g., because nanoparticles can be passively targeted to tumors to sample proteases through fenestrated angiogenic tumor vessels.^16. In order to explore this concept, athymic nude mice were used bearing LS174T xenograft tumors, a human colorectal cancer (CRC) cell line^38 that secretes the blood biomarker carcinoembryonic antigen (CEA) as a model system (FIG. 22). […] Following implantation, tumor engraftment was monitored by sampling serum every 3 days and analyzing for CEA by ELISA (FIG. 23b,c). […] Tumors permitted to grow further were readily detected by CEA analysis (day 13 and 16), representing a limit of detection of ˜330 mm3 (d ˜8.6 mm) (**P<0.01, Two way ANOVA, n=5). […] To determine the full diagnostic potential of multiplexed analysis, individual biomarkers were quantified by iCORE MS/MS.

Method for liver collagen: In vivo imaging. […] FVB/NJ mice (Jackson Labs) were fed with 0.1% w/w DDC (Sigma) rodent chow for three weeks (Research Diets). Fibrotic and age control animals were i.v. infused with VivoTag-680 labeled reagents and visualized by IVIS imaging (Xenogen).
For in situ zymography, fibrotic sections were covered with 90 μl solution of 0.5% w/v low melt agarose (Sigma) in MMP activation buffer (50 mM Tris, 150 NaCl, 5 mM CaCl2, 0.025% Brij 35, pH 7.5) with 10 μl of DQ-gelation (1 mg/ml, Invitrogen) and Hoechst dye at 37° C. Slides were solidified at 4° C. and then incubated at room temperature overnight to promote gelation proteolysis by tissue proteases. To quantify hepatic collagen, tissue from the right and left lobes (250-300 mg) were hydrolyzed in 5 ml of 6 N HCl at 110° C. for 16 hours followed by hydroxyproline quantification as previously described.^43 To quantify CEA, blood was collected from tumor animals into Capiject microtubes (Terumo) to isolate serum before ELISA analysis (Calbiotech). For immunofluorescence analysis, equimolar NW cocktails (5 μM/peptide) were administered in Fibrotic FVB/NJ or tumor bearing Nude mice. After perfusion, livers or tumors were fixed in 4% PFA, froze for sectioning, and stained for F4/80 (AbD Serotec), MMP-9 (R&D Biosystems), CD31 (Santa Cruz Biotechnologies) and/or FITC (Genetex) before analyzed by fluorescence microscopy (Nikon Eclipse Ti). […]

Regarding “e^+2GVndneeG^+6Ffs^+1Ar-X-K(FAM)GGf(Pip)RSGGGC-NW [Biomarker G8]”, in data set [1], the “individual iCORE peak intensity (DDC over control) relative to pretreatment” value is listed as “did not deviate from initial pretreatment activities”.
As for “e^+2G^+6Vndnee^+1GFfsAr-X-K(FAM)GGLVPRGSGC-NW [Biomarker G2]”, the “individual iCORE peak intensity (DDC over control) relative to pretreatment” value in data set [1] is “did not deviate from initial pretreatment activities”.
The same measure, in the same setting: then “e^+3GVndneeG^+6FfsAr-X-K(FAM)GGPLGVRGKC-NW [Biomarker G7]”, with “elevating sharply at week 3 followed by a rapid reversal at week 7”.
As to “eG^+5VndneeGFfs^+4Ar-X-K(FAM)GGPVPLSLVMC-NW [Biomarker G5]”, the “individual iCORE peak intensity (DDC over control) relative to pretreatment” value in data set [1] is “significantly decreasing at week 3”. Moreover, the “ROC area under the curve (AUC), fibrosing biomarkers” value in data set [1] (fibrosing window of 0-3 weeks, baseline AUC 0.5) was determined as 0.96.
Consider “3,5-diethoxycarbonyl-1,4-dihydrocollidine [DDC]”, for which, in the data set on liver collagen, the “drop in liver collagen” value is listed as roughly 30%.
Consider “e^+3G^+6VndneeGFfsAr-X-K(FAM)GGPQGIWGQC-NW [Biomarker G1]”, for which the “individual iCORE peak intensity (DDC over control) relative to pretreatment” value in data set [1] was “did not deviate from initial pretreatment activities”. Moreover, the “ROC area under the curve (AUC), resolving biomarkers” value in data set [1] (resolving time frame of 7-11 weeks, baseline AUC 0.5) came to 0.73. Further, the “ROC area under the curve (AUC), tumor biomarkers” value with LS174T xenograft tumors [2] is 0.78.
As to “eG^+6Vndnee^+2GFfs^+1Ar-X-K(FAM)GGPWGIWGQGC-NW [Biomarker G4]”, the “individual iCORE peak intensity (DDC over control) relative to pretreatment” value in data set [1] is given as “strongly increased relative to pretreatment baselines”.
As for “EGVNDNEEGFFSAR [Glu-fib, prototypic urinary marker peptide]”, in data set [3], the liver homing entry is recorded as “undetectable” and the “urinary filtration / urinary fluorescence” value is reported as “efficiently filtered into urine”.
For “e^+1GVndnee^+2G^+6FfsAr-X-K(FAM)GGfPRSGGGC-NW [Biomarker G9]”, the “individual iCORE peak intensity (DDC over control) relative to pretreatment” value in data set [1] is on record as “did not deviate from initial pretreatment activities”.
Turning to “e^+1G^+6Vndnee^+2GFfsAr-X-K(FAM)GGPVGLIGC-NW [Biomarker G3]”, the “individual iCORE peak intensity (DDC over control) relative to pretreatment” value in data set [1] is reported as “strongly increased relative to pretreatment baselines”.
With “eGVndnee^+3G^+6FfsAr-X-K(FAM)GGf(Pip)KSGGGC-NW [Biomarker G10]”, in data set [1], the “individual iCORE peak intensity (DDC over control) relative to pretreatment” value is “did not deviate from initial pretreatment activities”.
The same measure, in the same setting: then “e^+3G^+1Vndnee^+1GFfs^+4Ar-X-K(FAM)GGPLGLRSWC-NW [Biomarker G6]”, with “significantly decreasing at week 3”.

B1: serum CEA: blood biomarker carcinoembryonic antigen secreted by LS174T cells (protein, UniProt P06731 35-685, looked up)
Cell adhesion molecule CEACAM5: KLTIESTPFNVAEGKEVLLLVHNLPQHLFGYSWYKGERVDGNRQIIGYVIGTQQATPGPAYSGREIIYPNASLLIQNIIQNDTGFYTLHVIKSDLVNEEATGQFRVYPELPKPSISSNNSKPVEDKDAVAFTCEPETQDATYLWWVNNQSLPVSPRLQLSNGNRTLTLFNVTRNDTASYKCETQNPVSARRSDSVILNVLYGPDAPTISPLNTSYRSGENLNLSCHAASNPPAQYSWFVNGTFQQSTQELFIPNITVNNSGSYTCQAHNSDTGLNRTTVTTITVYAEPPKPFITSNNSNPVEDEDAVALTCEPEIQNTTYLWWVNNQSLPVSPRLQLSNDNRTLTLLSVTRNDVGPYECGIQNELSVDHSDPVILNVLYGPDDPTISPSYTYYRPGVNLSLSCHAASNPPAQYSWLIDGNIQQHTQELFISNITEKNSGLYTCQANNSASGHSRTTVKTITVSAELPKPSISSNNSKPVEDKDAVAFTCEPEAQNTTYLWWVNGQSLPVSPRLQLSNGNRTLTLFNVTRNDARAYVCGIQNSVSANRSDPVTLDVLYGPDTPIISPPDSSYLSGANLNLSCHSASNPSPQYSWRINGIPQQHTQVLFIAKITPNNNGTYACFVSNLATGRNNSIVKSITVSASGTSPGLSA
As to B1, the “ROC area under the curve (AUC), serum CEA” value in the data set with LS174T xenograft tumors [4] (day 10) is 0.61. For the same molecule, the “limit of detection (tumor burden) by CEA analysis” value in the data set on LS174T xenograft tumors [4] (day 13 and 16) is roughly 330 mm3.

(Values after patent US11549947B2, “Multiplexed detection with isotope-coded reporters” (Massachusetts Institute of Technology, priority 2011, dated 2023).)
